In patent US20240408073A1, “METHODS FOR TREATING A TRAUMA PATIENT” (Beth Israel Deaconess Medical Center, Inc., priority 2021, published 2024):

Assays:
[1] = tested on: PMN; assay: PMN CTX (chemotaxis) transwell assay; format: cell-based, human
Protocol: Human PMN were isolated from freshly withdrawn peripheral blood of healthy volunteers, as described previously. In brief, heparinized whole blood (10 U/ml) was centrifuged at 200×g for 10 min. The buffy coat and RBC were layered onto 1-Step Polymorphs (AN221725, Accurate Chemical & Scientific Corp, Carle Place, NY, USA), followed by centrifugation at 500×g for 30 min. The PMN layer was collected and diluted with an equal volume of 0.45% NaCl to restore osmolarity for 5 min at room temperature. The suspensions were then washed in RPMI 1640 and centrifuged at 200×g for 10 min. RBC in pellet were lysed with ice-cold 0.2% NaCl for 20 sec and the same volume of 1.6% NaCl was applied to end lysis. Cells were centrifuged again at 200×g for 10 min to collect PMN. PMN were resuspended in physiological solutions depending on the next functional study.
CTX assay PMN CTX was studied in […]. 1×10^5 PMN in 75 μL of RPMI with 2% heat-inactivated FBS were applied to the upper chamber and 150 μL of the same media containing indicated chemoattractants were applied to the lower chamber. mtDNA application was done at RT, rotating for 15 min. […] Cells were incubated (37° C., 5% CO2) for 60 min. PMN were then collected from the lower chambers, centrifuged (500×g, 5 min, RT) and re-suspended in 200 μL of cell lysis solution (×1/20) with CyQUANT GR dye (×1/400) in water for 15 min at RT (C7026, Thermo Fisher Scientific). PMN numbers were evaluated in 96-well plates using 480 nm excitation and 520 nm emission with known numbers of PMN for standard curve.

[2] = tested on: cortactin; assay: Western blot of acetylated cortactin in PMN; format: cell-based, human; settings: PAR in conjunction with mtDNA; FIG. 3H
Protocol: Briefly, PMN samples were dissolved in Pierce RIPA lysis buffer (25 mM Tris HCl pH 7.6, 150 mM NaCl, 1% NP-40, 1% sodium deoxycholate, 0.1% SDS) (Thermo Fisher Scientific, Waltham, MA, USA) containing Halt Protease & Phosphatase Inhibitor Cocktail (Thermo Fisher Scientific) for 20 min on ice, followed by centrifugation at […] for 20 min at 4° C. Then, the supernatant was collected, concentration was measured using a Pierce BCA Protein Assay Kit (Thermo Fisher Scientific). After mixing and boiling (95° C., 10 min) protein lysate with appropriate amount of 6×Laemmli SDS-sample buffer (J61337, Alfa Aesar, Tewksbury, MA, USA) according to the protein concentration, 40 μg of protein lysates were separated by SDS/PAGE and transferred to nitrocellulose membranes contained in an iBlot Transfer Stack kit (IB301002, Thermo Fisher Scientific). […] After being incubated with their appropriate secondary antibodies conjugated with horseradish peroxidase (HRP) the following day, the immunoblot signals were detected by application of the Amersham ECL Prime Western Blotting Detection Reagent kit (Cytiva, Marlborough, MA, USA) in a ChemiDoc Imaging System (Bio-Rad, Hercules, CA, USA). Quantification of blots were performed using Image J v.1.53i (National Institute of Health, Bethesda, MD, USA).

[3] = tested on: human PMN; assay: Bacterial phagocytosis assay by flow cytometry; format: cell-based; settings: drug 30 min, then mtDNA 15 min; FIG. 4A
[4] = tested on: human PMN; assay: Bacterial phagocytosis assay by colony-forming unit (CFU) count; format: cell-based; settings: drug 30 min, then mtDNA 15 min; for PMN uptake of Sa in co-culture suppressed by mtDNA (PMN lysis/agar plate): FIG. 4B; for Sa killing / clearance of Sa from co-culture media suppressed by mtDNA: FIG. 4C
Protocol: Before the CFU count of bacteria, Staphylococcus aureus (Sa) were opsonized with autologous serum from the PMN donor. OD600=0.1 were determined as 10^8 CFU/mL according to previous measurements. […] Then, Sa were incubated with PMN at 1:1 ratio in 1 mL 0.9% NaCl supplemented with human serum for 30 min rotating. […] The supernatant was collected separately, centrifuged at 5000×g for 10 min to pellet bacteria. The bacteria were applied on agar plates and after 18 hrs the bacterial colonies were counted.

[5] = tested on: human PMN; assay: Actin polymerization assay by rhodamine phalloidin staining; format: cell-based; settings: FIG. 5
Protocol: Actin polymerization was studied using an F-Actin Visualization Biochem Kit (Cytoskeleton, Inc., Denver, CO, USA) according to the manufacturer's instructions. Briefly, PMN were applied to glass slides (Thermo Fisher Scientific) pre-coated with 0.1% poly-L-lysine solution ([…], MilliporeSigma) in H2O. Then 200 μL of Fixative solution was added to the slides and incubated for 10 min at RT. After washing with 200 μL of Wash buffer for 30 sec at RT, 200 μL of Permeabilization Buffer was added to the slides and incubated for 5 min at RT. Then, the cells were stained with rhodamine phalloidin for 30 min at RT in dark. The slides were then washed with Wash buffer and Hoechst 33342 (1:1,000 in PBS) was applied to stain nucleus. Followed by 3 times of washing, 20 μL of Mounting medium was added to the center of each slide and a coverslip was put on. Clear nail polish was used to seal coverslips. The actin filaments were observed using AxioImager Epifluorescence Microscope (Zeiss, Jena, Germany) at excitation 535 nm and emission 585 nm.

[6] = tested on: Staphylococcus aureus; assay: Mouse trauma (laparotomy + liver crush) plus intratracheal Staphylococcus aureus lung infection; format: in vivo, CD-1 mice; settings: PAR 20 mg/kg
Protocol: Following 48 hr acclimatization, 8-9 week-old male CD-1 mice (body weight 30-32 g) underwent laparotomy followed by crushing of the left lobe of liver 8 times using a sterile forceps. […] Mice were sacrificed 18 h later and bronchoalveolar lavage (BAL) fluid (BALF) was collected by tracheal irrigation with 1 mL of PBS. The collected BALF was centrifuged; the pellet was diluted to count the number of immune cells; and the supernatant was then separated and applied to agar plates to count the remaining bacteria. Experiments were repeated as noted and data were combined.

[7] = tested on: PMN; assay: PMN respiratory burst in trauma patient plasma; format: cell-based, human; settings: FIG. 9E
[8] = tested on: PMN; assay: NETosis of PMN incubated with trauma plasma, induced by PMA; format: cell-based, human; settings: post-treatment 30 min after plasma, FIG. 9F
[9] = tested on: Formyl Peptide Receptor-1 (FPR1); assay: Flow cytometry for surface expression of FPR1 on human PMN; format: cell-based; settings: FIG. 9G
Protocol: Finally, PMN were incubated with fluorescein (FITC)-conjugated anti-human FPR1 antibody (FAB3744F, LifeSpan BioSciences Inc., Seattle, WA), phycoerythrin (PE)-conjugated anti-human CXCR2 antibody (FAB331P, LifeSpan BioSciences Inc.), or PE-conjugated anti-human BLT1 antibody (FAB099P, LifeSpan BioSciences Inc.) in the dark for 30 min at room temperature. FITC-conjugated isotype antibody (400210, BioLegend, San Diego, CA) or PE-conjugated isotype antibody (400212, BioLegend) was used as a negative control. Allophycocyanin (APC)—conjugated anti-human CD16 antibody (360705, BioLegend) was used to confirm PMN identification.

[10] = cited from earlier work; for Drug-drug interactions: VAL with PAR, clinical settings; for Bioavailability: both by parenteral and enteral routes
[11] = molecular target: T1, HDAC6 (Homo sapiens, UniProt Q9UBN7); assay: HDAC6 activation
T1 construct: endogenous in cells; host or cells: PMN
T1 sequence (Q9UBN7 1-1215): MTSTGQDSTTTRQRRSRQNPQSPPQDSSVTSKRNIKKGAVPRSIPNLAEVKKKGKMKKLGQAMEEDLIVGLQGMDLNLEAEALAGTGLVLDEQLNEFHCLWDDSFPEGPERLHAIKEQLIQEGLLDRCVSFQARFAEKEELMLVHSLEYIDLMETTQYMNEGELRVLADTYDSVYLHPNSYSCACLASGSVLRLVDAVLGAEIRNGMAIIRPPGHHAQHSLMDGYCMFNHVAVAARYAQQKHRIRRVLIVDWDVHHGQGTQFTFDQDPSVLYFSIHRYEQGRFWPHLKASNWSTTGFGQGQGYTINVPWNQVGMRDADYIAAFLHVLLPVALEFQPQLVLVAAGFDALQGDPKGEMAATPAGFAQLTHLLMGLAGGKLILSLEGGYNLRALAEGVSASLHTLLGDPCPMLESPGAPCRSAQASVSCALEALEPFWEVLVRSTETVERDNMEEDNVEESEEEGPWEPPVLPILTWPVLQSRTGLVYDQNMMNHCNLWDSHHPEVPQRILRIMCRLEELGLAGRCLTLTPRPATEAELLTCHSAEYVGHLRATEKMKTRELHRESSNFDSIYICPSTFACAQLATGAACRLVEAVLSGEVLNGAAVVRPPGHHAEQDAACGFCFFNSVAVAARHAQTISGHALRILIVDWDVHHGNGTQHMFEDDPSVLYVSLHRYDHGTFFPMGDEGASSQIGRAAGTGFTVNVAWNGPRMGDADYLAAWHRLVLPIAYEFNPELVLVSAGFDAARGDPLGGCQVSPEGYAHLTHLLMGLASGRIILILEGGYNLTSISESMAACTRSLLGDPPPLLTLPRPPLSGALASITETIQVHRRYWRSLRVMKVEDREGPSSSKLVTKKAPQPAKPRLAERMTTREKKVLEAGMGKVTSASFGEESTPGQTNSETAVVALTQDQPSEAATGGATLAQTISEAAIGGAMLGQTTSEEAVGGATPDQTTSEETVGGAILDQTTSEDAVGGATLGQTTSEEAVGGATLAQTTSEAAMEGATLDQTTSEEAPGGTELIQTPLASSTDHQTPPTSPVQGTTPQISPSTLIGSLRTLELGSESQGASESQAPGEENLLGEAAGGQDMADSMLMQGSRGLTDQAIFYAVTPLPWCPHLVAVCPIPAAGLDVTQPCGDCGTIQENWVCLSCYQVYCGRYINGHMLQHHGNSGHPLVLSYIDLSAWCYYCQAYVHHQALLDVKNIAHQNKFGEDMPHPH

[12] = inhibitor 30 min prior to mtDNA, N=6

FPR1 surface expression suppressed by ND6 [9] | Activation of HDAC6 [11] | Compound | Suppressive effect of mtDNA on PMN chemotaxis ([1]; FIG. 1B, dependence on endosomal acidification) | mtDNA-induced suppression of PMN CTX to GRO-α [1, 12] | mtDNA-induced suppression of PMN CTX to LTB4 [1, 12] | Suppression of PMN CTX to LTB4 after ND6 exposure ([1]; N=6) | Acetylated cortactin (ac-cortactin) level [2] | Phagocytosis of SYTO9 labeled Staphylococcus aureus by human PMN suppressed by mtDNA (flow cytometry) [3] | PMN uptake of Sa in co-culture suppressed by mtDNA (PMN lysis/agar plate) [4] | Sa killing / clearance of Sa from co-culture media suppressed by mtDNA [4] | F-actin polymerization response to LTB4 inhibited by mtDNA [5] | Lung bacterial clearance (Sa CFU in BAL, % of uninjured controls) ([6]; post-treatment i.p. 30 min post-injury, VPA 80 mg/kg, alone or combined) | Lung bacterial clearance (Sa CFU in BAL) ([6]; pre-treatment i.p. 30 min prior to injury, Sa i.t. 4 h after trauma) | PMN respiratory burst (RB) suppressed by trauma plasma ([7]; post-treatment) | PMN respiratory burst (RB) suppressed by trauma plasma ([7]; pre-treatment) | NET formation (NETosis) suppressed by trauma plasma [8] | Drug-drug interactions [10] | Bioavailability [10] | PMN CTX in the presence of mtDNA [1] | T1/2 of elimination ([10]; human, in vivo)
– | – | CCN(CC)CCCC(C)Nc1ccnc2cc(Cl)ccc12 (stereo not drawn) [CQ, chloroquine] | blocked | – | – | – | – | – | – | – | – | – | – | – | – | – | – | – | – | –
– | – | COC(=O)c1ccc(C=Cc2ccc([N+](=O)[O-])o2)o1 [GRKi, methyl 5-[2-(5-nitro-2-furyl)vinyl]-2-furoate] | – | rescued | rescued | – | – | – | – | – | – | – | – | – | – | – | – | – | – | –
diminish FPR1 regulation by ND6 | – | Fc1ccc([C@@H]2CCNC[C@H]2COc2ccc3c(c2)OCO3)cc1 [PAR, paroxetine] | – | – | rescued | rescued | blocks mtDNA suppression of ac-cortactin | restored phagocytosis | restored phagocytosis | restored Sa killing | rescued | did not confer significant protection | significantly prevented infection | ineffective | can rescue RB | minor reversals | no drug-drug interactions | excellent | – | –
diminish FPR1 regulation by ND6 | blocks activation of HDAC6 | CCCC(CCC)C(=O)O [VPA, valproic acid] | – | – | – | – | – | reverse mtDNA-mediated suppressive effects on bacterial phagocytosis and killing | reverse mtDNA-mediated suppressive effects on bacterial phagocytosis and killing | reverse mtDNA-mediated suppressive effects on bacterial phagocytosis and killing | rescued | – | – | ineffective | – | minor reversals | no drug-drug interactions | excellent | rescued | 8 to 17 h
